Test results published in patent US4692517A, “C-3' acylaminooxy-7-[(2-aminothiazol-4-yl)-α-(substituted-oximino)acety l]cephalosporin derivatives” (American Home Products Corporation, priority 1986, dated 1987).
In brackets after ≈: the same amount, converted by molar mass.

Columns and labels:
Type in all cases: cell-based
[1] = tested on: Staphylococcus aureus ATCC 29213; assay: Agar dilution MIC, Staphylococcus aureus ATCC 29213; conditions: ATCC29213, 18 hours at 35° C., read-out: Minimal Inhibitory Concentration (MIC)
Procedure: (§1) The compounds of the invention are tested for their antibacterial activity. The test is carried out as follows:
(§2) The organisms used in the test comprise the following:
(§3) Staphylococcus aureus (penicillin-sensitive and resistant), Pseudomonas aeruginosa, Escherichia coli, […] pneumoniae, Bordetella bronchiseptica, Proteus vulgaris, P. mirabilis, Acinetobacter calcoaceticus.
(§4) Test organisms may be added or deleted in order to reflect current clinical patterns of antibiotic susceptibility or shifts in pathogenic potential.
(§5) Organisms are normally grown for 18 hours in Brain Heart Infusion at 35° C. Cultures are adjusted with saline to MacFarland No. 1.5 standard prior to use.
(§6) Stock concentrations (e.g. 2,500 μg or units per ml) are prepared in a suitable vehicle. Two-fold dilutions are made. One ml quantities of each dilution are incorporated in 9 ml of the appropriate agar (e.g. Seed) in sterile Petri plates. The hardened surface is inoculated with test organisms by use of a Steers replicating device. The plates are incubated (e.g. 18 hours at 35° C.) and activity is determined.

[2] = tested on: Streptococcus faecalis ATCC 29212; assay: Agar dilution MIC, Streptococcus faecalis ATCC 29212; conditions: Enterococcus faecalis, ATCC29212, 18 hours at 35° C., read-out: Minimal Inhibitory Concentration (MIC)
Procedure: as §1, §2, §3, §4, §5, §6

[3] = tested on: Enterobacter cloacae ATCC 13047; assay: Agar dilution MIC, Enterobacter cloacae ATCC 13047; conditions: ATCC13047, 18 hours at 35° C., read-out: Minimal Inhibitory Concentration (MIC)
Procedure: as §1, §2, §3, §4, §5, §6

[4] = tested on: Escherichia coli ATCC 25922; assay: Agar dilution MIC, Escherichia coli ATCC 25922; conditions: ATCC25922, 18 hours at 35° C., read-out: Minimal Inhibitory Concentration (MIC)
Procedure: as §1, §2, §3, §4, §5, §6

[5] = tested on: Klebsiella pneunomiae KL-1; assay: Agar dilution MIC, Klebsiella pneunomiae KL-1; conditions: KL1, 18 hours at 35° C., read-out: Minimal Inhibitory Concentration (MIC)
Procedure: as §1, §2, §3, §4, §5, §6

[6] = tested on: Proteus vulgaris A 84354 1; assay: Agar dilution MIC, Proteus vulgaris A 84354 1; conditions: A843541, 18 hours at 35° C., read-out: Minimal Inhibitory Concentration (MIC)
Procedure: as §1, §2, §3, §4, §5, §6

[7] = tested on: Pseudomonas aeruginosa ATCC 27853; assay: Agar dilution MIC, Pseudomonas aeruginosa ATCC 27853; conditions: ATCC27853, 18 hours at 35° C., read-out: Minimal Inhibitory Concentration (MIC)
Procedure: as §1, §2, §3, §4, §5, §6

[8] = tested on: Serratia marcescens ATCC 13880; assay: Agar dilution MIC, Serratia marcescens ATCC 13880; conditions: ATCC13880, 18 hours at 35° C., read-out: Minimal Inhibitory Concentration (MIC)
Procedure: as §1, §2, §3, §4, §5, §6

- MIC [1]: 64 µg/mL (≈ 109 µM)
- MIC [2]: 128 µg/mL (≈ 219 µM)
- MIC [3]: 32 µg/mL (≈ 54.7 µM)
- MIC [4]: 4 µg/mL (≈ 6.84 µM)
- MIC [5]: 1 µg/mL (≈ 1.71 µM)
- MIC [6]: 1 µg/mL (≈ 1.71 µM)
- MIC [7]: 128 µg/mL (≈ 219 µM)
- MIC [8]: 16 µg/mL (≈ 27.4 µM)
SMILES: CO/N=C(\C(=O)N[C@@H]1C(=O)N2C(C(=O)OC(C)(C)C)=C(CONC(=O)OC(C)(C)C)CS[C@H]12)c1csc(N)n1 [Example 1B, (6R,7R)-7-[[(Z)-(2-amino-4-thiazolyl)(methoxyimino)acetyl]amino]-3-[[[[(1,1-dimethylethoxy)carbonyl]amino]oxy]methyl]-8-oxo-5-thia-1-azabicyclo[4.2.0]oct-2-ene-2-carboxylic acid 1,1-dimethylethyl ester]
